Source: patent US11524993B2 (priority 2015, dated 2022)

Legend:
[1] = tested on: B/FLA/06 yamagata lineage virus; set-up: species or system mice; details: mouse, in vivo
A/WSN/33 H1 virus = tested on: A/WSN/33 H1 virus; set-up: species or system mice; details: mouse, in vivo

## CCOC(=O)C1=C[C@@H](OC(CC)CC)[C@H](NC(C)=O)[C@@H](N)C1 [oseltamivir]
[1]
  oxygen saturation level (pulse oximetry) Day 6, B/FLA/06, avg.: 86%
  survival rates, influenza B infection: 90-100%
A/WSN/33 H1 virus
  oxygen saturation level (pulse oximetry) Day 6, A/WSN/33: reduced oxygen saturation at similar levels as those treated with an irrelevant control mAb
  protection (survival), influenza A infection model: no protection
